# Where “and” joins values, the source holds several entries; their conditions need not be identical. Equal values may be shown once. Where a name gives a salt, the structure may show the parent alone. Read-outs that look alike come from different tables or passages of the source.
# Tested on: β2AR
# Settings: for competition binding curve vs isoproterenol (Extended Data Figure 3M), Fit / competition binding curve vs isoproterenol (Extended Data Figure 3L), Fit: fitted curve
# Protocol: Reactions were equilibrated, washed, and measured following the same procedure listed above for the radioligand antagonist-binding assay. […] Weighted averages of these IC50 values were used for comparison purposes and inhibition constant (Ki) calculations. […] Binding assays were performed in technical duplicates. Three biological replicates were collected with different membrane preparations for each replicate.
structure (smiles),measurement,setting,value
"CC(C)NCC(O)c1ccc(O)c(O)c1 (stereo not drawn) [Isoproterenol, isoproterenol (+)-bitartrate salt]","competition binding curve vs isoproterenol (Extended Data Figure 3M), Fit","Sensor + Gs-peptide, Isoproterenol 1.00E-03 M",1.12
same,competition binding curve vs isoproterenol (Extended Data Figure 3M),"Sensor + Gs-peptide, Isoproterenol 1.00E-03 M, replicates 1-3 and Average",0.73 and -0.00169
same,"competition binding curve vs isoproterenol (Extended Data Figure 3M), Fit","Sensor + Gs-peptide, Isoproterenol 1.00E-04 M",1.39
same,competition binding curve vs isoproterenol (Extended Data Figure 3M),"Sensor + Gs-peptide, Isoproterenol 1.00E-04 M, replicates 1-3 and Average",1.06 and 1.58 and 0.34 and 1.27
same,"competition binding curve vs isoproterenol (Extended Data Figure 3M), Fit","Sensor + Gs-peptide, Isoproterenol 1.00E-05 M",3.99
same,competition binding curve vs isoproterenol (Extended Data Figure 3M),"Sensor + Gs-peptide, Isoproterenol 1.00E-05 M, replicates 1-3 and Average",5.22 and 6.17 and 4.29 and 5.19
same,"competition binding curve vs isoproterenol (Extended Data Figure 3M), Fit","Sensor + Gs-peptide, Isoproterenol 1.00E-06 M",22.44
same,competition binding curve vs isoproterenol (Extended Data Figure 3M),"Sensor + Gs-peptide, Isoproterenol 1.00E-06 M, replicates 1-3 and Average",22.22 and 23.42 and 21.91 and 21.33
same,"competition binding curve vs isoproterenol (Extended Data Figure 3M), Fit","Sensor + Gs-peptide, Isoproterenol 1.00E-07 M",61.20
same,competition binding curve vs isoproterenol (Extended Data Figure 3M),"Sensor + Gs-peptide, Isoproterenol 1.00E-07 M, replicates 1-3 and Average",61.19 and 63.45 and 61.62 and 58.48
same,"competition binding curve vs isoproterenol (Extended Data Figure 3M), Fit","Sensor + Gs-peptide, Isoproterenol 1.00E-08 M",85.17
same,competition binding curve vs isoproterenol (Extended Data Figure 3M),"Sensor + Gs-peptide, Isoproterenol 1.00E-08 M, replicates 1-3 and Average",85.29 and 86.69 and 86.58 and 82.61
same,"competition binding curve vs isoproterenol (Extended Data Figure 3M), Fit","Sensor + Gs-peptide, Isoproterenol 1.00E-09 M",97.00
same,competition binding curve vs isoproterenol (Extended Data Figure 3M),"Sensor + Gs-peptide, Isoproterenol 1.00E-09 M, replicates 1-3 and Average",96.71 and 101.87 and 95.55 and 92.70
same,"competition binding curve vs isoproterenol (Extended Data Figure 3M), Fit","Sensor + Gs-peptide, Isoproterenol 1.00E-10 M",99.03
same,competition binding curve vs isoproterenol (Extended Data Figure 3M),"Sensor + Gs-peptide, Isoproterenol 1.00E-10 M, replicates 1-3 and Average",97.96 and 100.63 and 97.15 and 96.10
same,"competition binding curve vs isoproterenol (Extended Data Figure 3M), Fit","Sensor, Isoproterenol 1.00E-03 M",0.48
same,competition binding curve vs isoproterenol (Extended Data Figure 3M),"Sensor, Isoproterenol 1.00E-03 M, replicates 1-3 and Average",0.69 and 0.84 and -0.72 and 0.27
same,competition binding curve vs isoproterenol (Extended Data Figure 3M),"Sensor, Isoproterenol 1.00E-04 M, replicates 1-3 and Average",1.32 and 1.71 and -0.50 and 0.84
same,"competition binding curve vs isoproterenol (Extended Data Figure 3M), Fit","Sensor, Isoproterenol 1.00E-05 M",5.70
same,competition binding curve vs isoproterenol (Extended Data Figure 3M),"Sensor, Isoproterenol 1.00E-05 M, replicates 1-3 and Average",7.08 and 7.24 and 5.39 and 6.57
same,"competition binding curve vs isoproterenol (Extended Data Figure 3M), Fit","Sensor, Isoproterenol 1.00E-06 M",30.01
same,competition binding curve vs isoproterenol (Extended Data Figure 3M),"Sensor, Isoproterenol 1.00E-06 M, replicates 1-3 and Average",30.57 and 29.08 and 29.48 and 29.71
same,"competition binding curve vs isoproterenol (Extended Data Figure 3M), Fit","Sensor, Isoproterenol 1.00E-07 M",74.45
same,competition binding curve vs isoproterenol (Extended Data Figure 3M),"Sensor, Isoproterenol 1.00E-07 M, replicates 1-3 and Average",73.61 and 76.73 and 72.17 and 74.17
same,"competition binding curve vs isoproterenol (Extended Data Figure 3M), Fit","Sensor, Isoproterenol 1.00E-08 M",96.90
same,competition binding curve vs isoproterenol (Extended Data Figure 3M),"Sensor, Isoproterenol 1.00E-08 M, replicates 1-3 and Average",94.98 and 101.48 and 95.93 and 97.46
same,"competition binding curve vs isoproterenol (Extended Data Figure 3M), Fit","Sensor, Isoproterenol 1.00E-09 M",100.28
same,competition binding curve vs isoproterenol (Extended Data Figure 3M),"Sensor, Isoproterenol 1.00E-09 M, replicates 1-3 and Average",98.04 and 104.41 and 99.80 and 100.75
same,"competition binding curve vs isoproterenol (Extended Data Figure 3M), Fit","Sensor, Isoproterenol 1.00E-10 M",100.63
same,competition binding curve vs isoproterenol (Extended Data Figure 3M),"Sensor, Isoproterenol 1.00E-10 M, replicates 1-3 and Average",100.71 and 99.53 and 99.04 and 99.76
same,"competition binding curve vs isoproterenol (Extended Data Figure 3M), Fit","Sensor, Isoproterenol 5.00E-06 M",10.04
same,competition binding curve vs isoproterenol (Extended Data Figure 3M),"Sensor, Isoproterenol 5.00E-06 M, replicates 2-3 and Average",10.13 and 9.02 and 9.58
same,"competition binding curve vs isoproterenol (Extended Data Figure 3M), Fit","Sensor, Isoproterenol 5.00E-07 M",42.59
same,competition binding curve vs isoproterenol (Extended Data Figure 3M),"Sensor, Isoproterenol 5.00E-07 M, replicates 2-3 and Average",41.48 and 44.45 and 42.96
same,"competition binding curve vs isoproterenol (Extended Data Figure 3L), Fit","Wild-Type + Gs-Peptide, Isoproterenol 1.00E-03 M",0.69
same,competition binding curve vs isoproterenol (Extended Data Figure 3L),"Wild-Type + Gs-Peptide, Isoproterenol 1.00E-03 M, replicates 1-3 and Average",0.0116 and 0.0442 and 0.27 and -0.28
same,"competition binding curve vs isoproterenol (Extended Data Figure 3L), Fit","Wild-Type + Gs-Peptide, Isoproterenol 1.00E-04 M",1.04
same,competition binding curve vs isoproterenol (Extended Data Figure 3L),"Wild-Type + Gs-Peptide, Isoproterenol 1.00E-04 M, replicates 1-3 and Average",0.88 and 0.89 and 0.84 and 0.90
same,"competition binding curve vs isoproterenol (Extended Data Figure 3L), Fit","Wild-Type + Gs-Peptide, Isoproterenol 1.00E-05 M",4.37
same,competition binding curve vs isoproterenol (Extended Data Figure 3L),"Wild-Type + Gs-Peptide, Isoproterenol 1.00E-05 M, replicates 1-3 and Average",5.43 and 5.70 and 4.92 and 5.68
same,"competition binding curve vs isoproterenol (Extended Data Figure 3L), Fit","Wild-Type + Gs-Peptide, Isoproterenol 1.00E-06 M",26.38
same,competition binding curve vs isoproterenol (Extended Data Figure 3L),"Wild-Type + Gs-Peptide, Isoproterenol 1.00E-06 M, replicates 1-3 and Average",26.11 and 25.98 and 23.88 and 28.47
same,"competition binding curve vs isoproterenol (Extended Data Figure 3L), Fit","Wild-Type + Gs-Peptide, Isoproterenol 1.00E-07 M",67.56
same,competition binding curve vs isoproterenol (Extended Data Figure 3L),"Wild-Type + Gs-Peptide, Isoproterenol 1.00E-07 M, replicates 1-3 and Average",67.66 and 67.54 and 65.49 and 69.94
same,"competition binding curve vs isoproterenol (Extended Data Figure 3L), Fit","Wild-Type + Gs-Peptide, Isoproterenol 1.00E-08 M",91.53
same,competition binding curve vs isoproterenol (Extended Data Figure 3L),"Wild-Type + Gs-Peptide, Isoproterenol 1.00E-08 M, replicates 1-3 and Average",91.27 and 90.42 and 91.58 and 91.80
same,"competition binding curve vs isoproterenol (Extended Data Figure 3L), Fit","Wild-Type + Gs-Peptide, Isoproterenol 1.00E-09 M",98.02
same,competition binding curve vs isoproterenol (Extended Data Figure 3L),"Wild-Type + Gs-Peptide, Isoproterenol 1.00E-09 M, replicates 1-3 and Average",99.15 and 99.41 and 97.66 and 100.39
same,"competition binding curve vs isoproterenol (Extended Data Figure 3L), Fit","Wild-Type + Gs-Peptide, Isoproterenol 1.00E-10 M",98.82
same,competition binding curve vs isoproterenol (Extended Data Figure 3L),"Wild-Type + Gs-Peptide, Isoproterenol 1.00E-10 M, replicates 1-3 and Average",99.26 and 100.00 (2×) and 97.78
same,competition binding curve vs isoproterenol (Extended Data Figure 3L),"Wild-Type, Isoproterenol 1.00E-03 M, replicates 1-3 and Average",-0.10 and -0.40 and -0.34 and -0.28
same,"competition binding curve vs isoproterenol (Extended Data Figure 3L), Fit","Wild-Type, Isoproterenol 1.00E-04 M",0.67
same,competition binding curve vs isoproterenol (Extended Data Figure 3L),"Wild-Type, Isoproterenol 1.00E-04 M, replicates 1-3 and Average",0.94 and 0.31 and 1.43 and 0.89
same,"competition binding curve vs isoproterenol (Extended Data Figure 3L), Fit","Wild-Type, Isoproterenol 1.00E-05 M",5.86
same,competition binding curve vs isoproterenol (Extended Data Figure 3L),"Wild-Type, Isoproterenol 1.00E-05 M, replicates 1-3 and Average",6.24 and 5.08 and 7.57 and 6.30
same,"competition binding curve vs isoproterenol (Extended Data Figure 3L), Fit","Wild-Type, Isoproterenol 1.00E-06 M",32.07
same,competition binding curve vs isoproterenol (Extended Data Figure 3L),"Wild-Type, Isoproterenol 1.00E-06 M, replicates 1-3 and Average",32.68 and 27.33 and 35.77 and 31.93
same,"competition binding curve vs isoproterenol (Extended Data Figure 3L), Fit","Wild-Type, Isoproterenol 1.00E-07 M",78.70
same,competition binding curve vs isoproterenol (Extended Data Figure 3L),"Wild-Type, Isoproterenol 1.00E-07 M, replicates 1-3 and Average",79.40 and 70.32 and 85.20 and 78.31
same,"competition binding curve vs isoproterenol (Extended Data Figure 3L), Fit","Wild-Type, Isoproterenol 1.00E-08 M",97.15
same,competition binding curve vs isoproterenol (Extended Data Figure 3L),"Wild-Type, Isoproterenol 1.00E-08 M, replicates 1-3 and Average",99.13 and 95.83 and 100.15 and 98.37
same,"competition binding curve vs isoproterenol (Extended Data Figure 3L), Fit","Wild-Type, Isoproterenol 1.00E-09 M",99.60
same,competition binding curve vs isoproterenol (Extended Data Figure 3L),"Wild-Type, Isoproterenol 1.00E-09 M, replicates 1-3 and Average",96.70 and 99.42 and 102.28 and 99.47
same,"competition binding curve vs isoproterenol (Extended Data Figure 3L), Fit","Wild-Type, Isoproterenol 1.00E-10 M",99.85
same,competition binding curve vs isoproterenol (Extended Data Figure 3L),"Wild-Type, Isoproterenol 1.00E-10 M, replicates 1-3 and Average",100.00 and 99.63 and 97.46 and 99.03
same,"competition binding curve vs isoproterenol (Extended Data Figure 3L), Fit","Wild-Type, Isoproterenol 5.00E-06 M",10.54
same,competition binding curve vs isoproterenol (Extended Data Figure 3L),"Wild-Type, Isoproterenol 5.00E-06 M, replicates 1-3 and Average",11.05 and 8.39 and 11.22 and 10.22
same,"competition binding curve vs isoproterenol (Extended Data Figure 3L), Fit","Wild-Type, Isoproterenol 5.00E-07 M",46.03
same,competition binding curve vs isoproterenol (Extended Data Figure 3L),"Wild-Type, Isoproterenol 5.00E-07 M, replicates 1-3 and Average",47.06 and 40.75 and 51.12 and 46.31
same,"% Cyanopindolol Bmax, Average","β2AR ∆ICL3 + 30 µM Gq-peptide, isoproterenol 3.00E-06 M",34.71%
same,"% Cyanopindolol Bmax, Average","β2AR ∆ICL3 + 30 µM Gq-peptide, isoproterenol 5.00E-06 M",27.06%
same,"% Cyanopindolol Bmax, Average","β2AR ∆ICL3 + 30 µM Gq-peptide, isoproterenol 5.00E-07 M",70.37%
same,"% Cyanopindolol Bmax, Average","β2AR ∆ICL3, isoproterenol 3.00E-06 M",30.73%
same,"% Cyanopindolol Bmax, Average","β2AR ∆ICL3, isoproterenol 5.00E-06 M",15.67%
same,"% Cyanopindolol Bmax, Average","β2AR ∆ICL3, isoproterenol 5.00E-07 M",65.90%

# — PMC10033409, “Autoregulation of GPCR signalling through the third intracellular loop” (Nature, 2023)
